{"source": "PubChem BioAssay (NCI)", "assay_in_all_cases": "NCI tumour cell line growth inhibition, 48 h", "key": {"[1]": {"tested_on": "M19-MEL melanoma"}, "[2]": {"tested_on": "RXF-631 renal"}, "[3]": {"tested_on": "DLD-1 colon"}, "[4]": {"tested_on": "XF 498 CNS"}, "[5]": {"tested_on": "HOP-18 NSCLC"}, "[6]": {"tested_on": "HS 578T breast"}, "[7]": {"tested_on": "MDA-N"}, "[8]": {"tested_on": "P388 leukemia"}, "[9]": {"tested_on": "SN12K1 renal"}, "[10]": {"tested_on": "T-47D breast"}, "[11]": {"tested_on": "BT-549 breast"}, "[12]": {"tested_on": "P388/ADR leukemia"}}, "note": "Where “and” joins values, the source holds several entries; their conditions need not be identical. Identical values can stand only once.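 Where inhibition never reached the appropriate level, the endpoint shown equals the highest concentration tested. Otherwise, values were interpolated linearly from a five-concentration, 48-hour dose response in 96-well plates. GI50 is the concentration that inhibits growth by half. TGI: total growth inhibition.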"}
{"smiles": "CC1(C)C2C/C(=C\\c3ccccc3)C(=O)C1C2", "note": "(stereo not given)", "values": [{"measurement": "TGI", "setting": "[1]", "value": "> 100", "unit": "µM"}, {"measurement": "TGI", "setting": "[2]", "value": "> 100", "unit": "µM"}, {"measurement": "TGI", "setting": "[3]", "value": "> 100", "unit": "µM"}]}
{"smiles": "CC12CC3CC(C1)CC(N=[N+]=[N-])(C3)C2", "values": [{"measurement": "TGI", "setting": "[1]", "value": "> 100", "unit": "µM"}, {"measurement": "TGI", "setting": "[2]", "value": "> 100", "unit": "µM"}, {"measurement": "TGI", "setting": "[4]", "value": "> 100", "unit": "µM"}, {"measurement": "TGI", "setting": "[5]", "value": "> 100", "unit": "µM"}, {"measurement": "TGI", "setting": "[3]", "value": "> 100", "unit": "µM"}]}
{"smiles": "Cn1c(=O)c(C(=O)NC(=O)OCc2ccccc2)cn(CCSCCOC(=O)NCCCCCCNC(=O)OCCSCCn2cc(C(=O)NC(=O)OCc3ccccc3)c(=O)n(C)c2=O)c1=O", "values": [{"measurement": "TGI", "setting": "[1]", "value": "> 100", "unit": "µM"}, {"measurement": "TGI", "setting": "[2]", "value": "> 100", "unit": "µM"}, {"measurement": "TGI", "setting": "[4]", "value": 57.6, "unit": "µM"}, {"measurement": "TGI", "setting": "[3]", "value": "> 100", "unit": "µM"}]}
{"smiles": "COc1cc(/C=C2/C(=O)NC(Cc3cc(OC)c(OC)c(C)c3OC)C(=O)N2Cc2ccccc2)c(OC)c(C)c1OC", "note": "(stereo not given)", "values": [{"measurement": "TGI", "setting": "[1]", "value": "> 100", "unit": "µM"}, {"measurement": "TGI", "setting": "[2]", "value": "> 100", "unit": "µM"}, {"measurement": "TGI", "setting": "[5]", "value": 80.4, "unit": "µM"}, {"measurement": "TGI", "setting": "[3]", "value": "> 100", "unit": "µM"}]}
{"smiles": "CC(C)(c1ccc(OC#N)cc1)c1ccc(OC#N)cc1", "values": [{"measurement": "TGI", "setting": "[1]", "value": "> 100", "unit": "µM"}, {"measurement": "TGI", "setting": "[2]", "value": "> 100", "unit": "µM"}, {"measurement": "TGI", "setting": "[5]", "value": "> 100", "unit": "µM"}, {"measurement": "TGI", "setting": "[3]", "value": "> 100", "unit": "µM"}]}
{"smiles": "O=C1C[C@@H]2CCCC[C@@H]2C12SCCS2", "values": [{"measurement": "TGI", "setting": "[1]", "value": "> 100", "unit": "µM"}, {"measurement": "TGI", "setting": "[2]", "value": "> 100", "unit": "µM"}, {"measurement": "TGI", "setting": "[4]", "value": "> 100", "unit": "µM"}, {"measurement": "TGI", "setting": "[3]", "value": "> 100", "unit": "µM"}]}
{"smiles": "CNc1nc(N(C)C)nc(N(C)C)n1", "values": [{"measurement": "GI50", "setting": "[1]", "value": "> 100 µM and 2040 µM"}, {"measurement": "TGI", "setting": "[1]", "value": "> 100 µM and 3950 µM"}, {"measurement": "GI50", "setting": "[4]", "value": "> 100 µM and 538 µM"}, {"measurement": "TGI", "setting": "[4]", "value": "> 100 µM and 1720 µM"}, {"measurement": "GI50", "setting": "[5]", "value": "> 100 µM and 1130 µM"}, {"measurement": "TGI", "setting": "[5]", "value": "> 100 µM and 3780 µM"}, {"measurement": "TGI", "setting": "[6]", "value": 4450, "unit": "µM"}, {"measurement": "TGI", "setting": "[7]", "value": 2850, "unit": "µM"}, {"measurement": "TGI", "setting": "[8]", "value": 1530, "unit": "µM"}, {"measurement": "TGI", "setting": "[9]", "value": 2620, "unit": "µM"}, {"measurement": "TGI", "setting": "[10]", "value": 3720, "unit": "µM"}, {"measurement": "TGI", "setting": "[11]", "value": 3620, "unit": "µM"}, {"measurement": "GI50", "setting": "[3]", "value": "> 100 µM and 822 µM"}, {"measurement": "TGI", "setting": "[3]", "value": "> 100 µM and 4160 µM"}, {"measurement": "TGI", "setting": "[12]", "value": 1800, "unit": "µM"}]}
{"smiles": "N#CC(C#N)=C1SCC(=O)CS1", "values": [{"measurement": "TGI", "setting": "[1]", "value": "> 100", "unit": "µM"}, {"measurement": "TGI", "setting": "[2]", "value": "> 100", "unit": "µM"}, {"measurement": "TGI", "setting": "[4]", "value": "> 100", "unit": "µM"}, {"measurement": "TGI", "setting": "[3]", "value": "> 100", "unit": "µM"}]}
{"smiles": "C=C(C)[C@H](O)C(O)CC(C)[C@@H]1CCC23CC12CCC1[C@@]2(C)CCC(OC(C)=O)C(C)(C)C2CC(OC2OC(COC(C)=O)C(O)C(O)C2O)[C@]13C", "note": "(stereo not given in full)", "values": [{"measurement": "TGI", "setting": "[1]", "value": 10.7, "unit": "µM"}, {"measurement": "TGI", "setting": "[2]", "value": 12, "unit": "µM"}, {"measurement": "TGI", "setting": "[5]", "value": 15.2, "unit": "µM"}, {"measurement": "TGI", "setting": "[3]", "value": 11.2, "unit": "µM"}]}
{"smiles": "Cc1cccc2c1C/C(=C1\\CCc3c(C)cccc31)C2=O", "values": [{"measurement": "TGI", "setting": "[1]", "value": "> 100", "unit": "µM"}, {"measurement": "TGI", "setting": "[2]", "value": "> 100", "unit": "µM"}, {"measurement": "TGI", "setting": "[5]", "value": "> 100", "unit": "µM"}, {"measurement": "TGI", "setting": "[3]", "value": "> 100", "unit": "µM"}]}
{"smiles": "COc1cc(C(=O)CC2(O)C(=O)Nc3c(Cl)cc(Cl)cc32)ccc1O", "note": "(stereo not given)", "values": [{"measurement": "TGI", "setting": "[2]", "value": "> 100", "unit": "µM"}, {"measurement": "TGI", "setting": "[4]", "value": "> 100", "unit": "µM"}, {"measurement": "TGI", "setting": "[5]", "value": "> 100", "unit": "µM"}, {"measurement": "TGI", "setting": "[3]", "value": "> 100", "unit": "µM"}]}
{"smiles": "O=C(/C=C1/NC(=O)CS1)Nc1ccccc1", "values": [{"measurement": "TGI", "setting": "[1]", "value": "> 100", "unit": "µM"}, {"measurement": "TGI", "setting": "[2]", "value": "> 100", "unit": "µM"}, {"measurement": "TGI", "setting": "[4]", "value": "> 100", "unit": "µM"}, {"measurement": "TGI", "setting": "[5]", "value": "> 100", "unit": "µM"}, {"measurement": "TGI", "setting": "[3]", "value": "> 100", "unit": "µM"}]}
{"smiles": "COc1ccc2c(c1)CC1c3c(cc4c(c3-2)OCO4)CCN1C", "note": "(stereo not given)", "values": [{"measurement": "TGI", "setting": "[1]", "value": 45.2, "unit": "µM"}, {"measurement": "TGI", "setting": "[2]", "value": 73.6, "unit": "µM"}, {"measurement": "TGI", "setting": "[4]", "value": 74, "unit": "µM"}, {"measurement": "TGI", "setting": "[5]", "value": 82.7, "unit": "µM"}, {"measurement": "TGI", "setting": "[3]", "value": "> 100", "unit": "µM"}]}
{"smiles": "COc1cc([C@@H]2OC(=O)C3C2C(=O)O[C@H]3c2cc(OC)c(OC)c(OC)c2)cc(OC)c1OC", "note": "(stereo not given in full)", "values": [{"measurement": "TGI", "setting": "[1]", "value": "> 100", "unit": "µM"}, {"measurement": "TGI", "setting": "[2]", "value": "> 100", "unit": "µM"}, {"measurement": "TGI", "setting": "[4]", "value": "> 100", "unit": "µM"}, {"measurement": "TGI", "setting": "[5]", "value": "> 100", "unit": "µM"}]}
{"smiles": "COC1=CC(=O)[C@]2(C)[C@H](C1=O)C(C)[C@H]2c1ccccc1", "note": "(stereo not given in full)", "values": [{"measurement": "TGI", "setting": "[1]", "value": "> 100", "unit": "µM"}, {"measurement": "TGI", "setting": "[2]", "value": "> 100", "unit": "µM"}, {"measurement": "TGI", "setting": "[4]", "value": "> 100", "unit": "µM"}, {"measurement": "TGI", "setting": "[3]", "value": "> 100", "unit": "µM"}]}
{"smiles": "O=P1(O)c2ccccc2Nc2cc(C(F)(F)F)ccc21", "values": [{"measurement": "TGI", "setting": "[1]", "value": "> 100", "unit": "µM"}, {"measurement": "TGI", "setting": "[4]", "value": "> 100", "unit": "µM"}, {"measurement": "TGI", "setting": "[5]", "value": "> 100", "unit": "µM"}, {"measurement": "TGI", "setting": "[6]", "value": "> 100", "unit": "µM"}, {"measurement": "TGI", "setting": "[7]", "value": "> 100", "unit": "µM"}, {"measurement": "TGI", "setting": "[10]", "value": "> 100", "unit": "µM"}, {"measurement": "TGI", "setting": "[11]", "value": "> 100", "unit": "µM"}, {"measurement": "TGI", "setting": "[3]", "value": "> 100", "unit": "µM"}]}
{"smiles": "Cc1ccc(N2C(=O)/C(=C/c3ccc(N(CCC#N)CCC#N)cc3C)N=C2c2cc([N+](=O)[O-])ccc2Cl)cc1", "values": [{"measurement": "TGI", "setting": "[1]", "value": "> 100", "unit": "µM"}, {"measurement": "TGI", "setting": "[2]", "value": "> 100", "unit": "µM"}, {"measurement": "TGI", "setting": "[5]", "value": "> 100", "unit": "µM"}, {"measurement": "TGI", "setting": "[3]", "value": "> 100", "unit": "µM"}]}
